For 12 compounds, DC50 results are on record in patent US20200308171A1, “BIFUNCTIONAL INHIBITORS WITH EGFR HAVING A E3 UBIQUITIN LIGASE MOIETY” (Hoffmann-La Roche Inc., priority 2017, published 2020).

The target of this experiment is T1, EGFR T790M/L858R/C797S (Homo sapiens, UniProt P00533, C797S/L858R/T790M).
T1 construct: expressed in transfected cells; host or cells: BaF3 (murine pro-B) cells stably transduced with pCDH lentiviral vector, PGK promoter
Put plainly: EGFR Degradation Assay (Cellular), FRET quantification of total EGFR. The settings on record: BaF3 EGFR mutant cell line (EGFR T790M/L858R/C797S); 4-hour incubation; total EGFR FRET kit; top concentration 1 μM, 11 points; read-out: IC50 [nM] mutant EGFR degradation. It is filed as cell-based. The protocol:
EGFR Degradation Assay (Cellular)
The BaF3 parental line was purchased from DSMZ and grown in RPMI media supplemented with 10% FBS and 10 ng/mL interleukin 3 (IL-3) (Thermo Fisher Scientific). EGFR mutants ([…]) were cloned into the pCDH lentiviral vector (SystemBio) under the control of a PGK promoter and confirmed by DNA sequencing. The resulting gene expression vector for each mutant was mixed with packaging vectors and cotransfected into 2×10E6 HEK293T cells (ATCC) in 10 mL of DMEM media to generate lentiviral particles according to the manufacturers protocol (Origene).
Three days post-transfection, the viral supernatant was harvested and filtered. In one well of a 12-well plate, 0.5 mL of viral supernatant was added to 2E6 Ba/F3 cells contained in 1.5 mL of RPMI media including 10% FBS, 10 ng/mL IL-3, and 5 μg/mL polybrene (Invitrogen). The plate was centrifuged at 2,000 rpm for 1 hour at room temperature and infected cells were kept in a tissue culture incubator overnight at 37° C. The cells were washed once in fresh BaF3 media and reseeded at 0.5E6 cells/well of a 12-well plate in media supplemented with 0.5 μg/mL puromycin. The cells were maintained in this media for 3 weeks. IL-3-independent, EGFR mutant transformed cells were routinely maintained in RPMI medium supplemented with 10% FBS.
RPMI 1640 no-phenol red medium and fetal bovine serum (FBS) were purchased from Gibco (Grand Island, N.Y., USA). EGFR total kit and EGFR phospho-Y1068 kit were purchased from Cisbio (Bedford, Mass., USA). BaF3 EGFR mutant cell lines (EGFR T790M/L858R/C797S) cell line was generated in house, according to the protocol reported above. Cell culture flasks and 384-well microplates were acquired from VWR (Radnor, Pa., USA).
EGFR degradation was determined based on quantification of FRET signal using EGFR total kit. The FRET signal detected correlates with total EGFR protein level in cells. Briefly, test compounds were added to the 384-well plate from a top concentration of 1 μM with 11 points, half log titration in quadruplicates. Then, BaF3 EGFR mutant cell lines (EGFR T790M/L858R/C797S) were added into 384-well plates at a cell density of 10000 cells per well. The plates were kept at 37° C. with 5% CO2 for 4 hours. After 4-hour incubation, 4× lysis buffer was added to the cells, and then microplate was agitated on plate shaker at 500 rpm for 30 minutes at room temperature. Next, total EGFR antibody solution was added to the cells and the cells were incubated for another 4 hours at room temperature. Finally, FRET signal was acquired on EnVision™ Multilabel Reader (PerkinElmer, Santa Clara, Calif., USA). The cells treated in the absence of the test compound were the negative control and lysis buffer with antibody solution only were the positive control.

The structures appear in SMILES notation.

T1 sequence (P00533 25-1210 T790M/C797S/L858R): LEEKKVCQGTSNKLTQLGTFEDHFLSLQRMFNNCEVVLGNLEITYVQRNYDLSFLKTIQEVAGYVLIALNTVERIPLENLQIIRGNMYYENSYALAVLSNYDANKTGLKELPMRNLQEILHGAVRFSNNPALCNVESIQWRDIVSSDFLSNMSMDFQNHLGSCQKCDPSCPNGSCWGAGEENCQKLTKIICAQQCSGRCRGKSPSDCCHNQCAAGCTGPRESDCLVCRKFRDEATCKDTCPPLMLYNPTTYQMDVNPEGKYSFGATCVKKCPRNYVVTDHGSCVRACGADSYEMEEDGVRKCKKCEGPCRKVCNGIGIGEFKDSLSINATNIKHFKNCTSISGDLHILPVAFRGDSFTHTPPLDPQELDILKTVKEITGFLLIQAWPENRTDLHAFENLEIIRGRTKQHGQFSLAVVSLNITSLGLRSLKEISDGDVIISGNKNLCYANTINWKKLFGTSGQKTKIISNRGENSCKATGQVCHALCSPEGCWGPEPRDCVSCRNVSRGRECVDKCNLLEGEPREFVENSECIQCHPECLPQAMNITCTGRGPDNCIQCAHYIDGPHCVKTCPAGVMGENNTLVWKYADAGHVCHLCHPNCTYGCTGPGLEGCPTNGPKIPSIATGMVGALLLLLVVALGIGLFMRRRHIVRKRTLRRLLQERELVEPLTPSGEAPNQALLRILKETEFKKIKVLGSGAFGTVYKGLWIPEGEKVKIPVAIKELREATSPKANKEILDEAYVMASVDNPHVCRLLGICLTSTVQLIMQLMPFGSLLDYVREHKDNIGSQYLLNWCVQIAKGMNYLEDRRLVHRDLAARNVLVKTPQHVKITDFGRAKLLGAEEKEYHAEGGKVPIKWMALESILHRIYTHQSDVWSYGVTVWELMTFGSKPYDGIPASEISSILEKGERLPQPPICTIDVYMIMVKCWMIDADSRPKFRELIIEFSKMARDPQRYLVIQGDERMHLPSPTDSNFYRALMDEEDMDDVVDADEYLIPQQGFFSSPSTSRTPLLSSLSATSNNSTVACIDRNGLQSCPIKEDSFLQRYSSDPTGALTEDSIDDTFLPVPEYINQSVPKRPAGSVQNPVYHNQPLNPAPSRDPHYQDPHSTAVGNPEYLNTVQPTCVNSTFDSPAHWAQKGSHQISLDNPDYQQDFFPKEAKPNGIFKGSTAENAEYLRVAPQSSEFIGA

`CO[C@H]1CCN(c2nccc(Nc3cc4c(cn3)c(C(=O)NC3CCN(CCCC5CN(c6cccc7c6C(=O)N(C6CCC(=O)NC6=O)C7=O)C5)CC3)cn4C(C)C)n2)C[C@H]1F` (mixture of isomers) [Example 24, N-[1-[3-[1-[2-[(3RS)-2,6-Dioxo-3-piperidyl]-1,3-dioxo-isoindolin-4-yl]azetidin-3-yl]propyl]-4-piperidyl]-6-[[2-[(3R,4S)-3-fluoro-4-methoxy-1-piperidyl]pyrimidin-4-yl]amino]-1-isopropyl-pyrrolo[3,2-c]pyridine-3-carboxamide]: the DC50 turned out to be 5 nM.

In the case of `COC1CCN(c2nccc(Nc3cc4c(cn3)c(C(=O)NC3CCN(CCCCCCNc5cccc6c5C(=O)N(C5CCC(=O)NC5=O)C6=O)CC3)cn4C3CCCC3)n2)CC1` (racemic) [Example 4, 1-Cyclopentyl-N-[1-[6-[[2-[(3RS)-2,6-dioxo-3-piperidyl]-1,3-dioxo-isoindolin-4-yl]amino]hexyl]-4-piperidyl]-6-[[2-(4-methoxy-1-piperidyl)pyrimidin-4-yl]amino]pyrrolo[3,2-c]pyridine-3-carboxamide], the DC50 came to 38 nM.

As for `CO[C@H]1CCN(c2nccc(Nc3cc4c(cn3)c(C(=O)NC3CCN(CCCCC5CCN(c6ccc7c(c6)C(=O)N(C6CCC(=O)NC6=O)C7=O)CC5)CC3)cn4C(C)C)n2)C[C@H]1F` (mixture of isomers) [Example 19, N-[1-[4-[1-[2-[(3RS)-2,6-Dioxo-3-piperidyl]-1,3-dioxo-isoindolin-5-yl]-4-piperidyl]butyl]-4-piperidyl]-6-[[2-[(3R,4S)(3S,4R)-3-fluoro-4-methoxy-1-piperidyl]pyrimidin-4-yl]amino]-1-isopropyl-pyrrolo[3,2-c]pyridine-3-carboxamide], the DC50 came to 73 nM.

With `CO[C@H]1CCN(c2nccc(Nc3cc4c(cn3)c(C(=O)NC3CCN(CCCOC5CCN(c6cccc7c6C(=O)N(C6CCC(=O)NC6=O)C7=O)CC5)CC3)cn4C3CCCC3)n2)C[C@H]1F` (single isomer, unassigned) [Example 18], the DC50 came out at 45 nM.

On to `CO[C@H]1CCN(c2nccc(Nc3cc4c(cn3)c(C(=O)NC3CCN(CCC5CCN(c6ccc7c(c6)C(=O)N(C6CCC(=O)NC6=O)C7=O)CC5)CC3)cn4C(C)C)n2)C[C@H]1F` (mixture of isomers) [Example 16, N-[1-[2-[1-[2-[(3RS)-2,6-Dioxo-3-piperidyl]-1,3-dioxo-isoindolin-5-yl]-4-piperidyl]ethyl]-4-piperidyl]-6-[[2-[(3R,4S)-3-fluoro-4-methoxy-1-piperidyl]pyrimidin-4-yl]amino]-1-isopropyl-pyrrolo[3,2-c]pyridine-3-carboxamide], for which the DC50 came out at 28 nM.

For `CO[C@@H]1CCN(c2nccc(Nc3cc4c(cn3)c(C(=O)NC3CCN(CCCCCCNc5cccc6c5C(=O)N(C5CCC(=O)NC5=O)C6=O)CC3)cn4C(C)C)n2)C[C@@H]1F` (mixture of isomers) [Example 8, N-[1-[6-[[2-[(3RS)-2,6-Dioxo-3-piperidyl]-1,3-dioxo-isoindolin-4-yl]amino]hexyl]-4-piperidyl]-6-[[2-[(3S,4R)-3-fluoro-4-methoxy-1-piperidyl]pyrimidin-4-yl]amino]-1-isopropyl-pyrrolo[3,2-c]pyridine-3-carboxamide], the DC50 is 46 nM.

Turning to `COC1CCN(c2nccc(Nc3cc4c(cn3)c(C(=O)NC3CCN(CCCCCCNc5cccc6c5C(=O)N(C5CCC(=O)NC5=O)C6=O)CC3)cn4C(C)C)n2)CC1(F)F` (racemic) [Example 3, 6-[[2-[(4RS)-3,3-Difluoro-4-methoxy-1-piperidyl]pyrimidin-4-yl]amino]-N-[1-[6-[[2-[(3RS)-2,6-dioxo-3-piperidyl]-1,3-dioxo-isoindolin-4-yl]amino]hexyl]-4-piperidyl]-1-isopropyl-pyrrolo[3,2-c]pyridine-3-carboxamide], the DC50 was determined as 44 nM.

Take `CO[C@H]1CCN(c2nccc(Nc3cc4c(cn3)c(C(=O)NC3CCN(CCCOC5CCN(c6cccc7c6C(=O)N(C6CCC(=O)NC6=O)C7=O)CC5)CC3)cn4C(C)C)n2)C[C@H]1F` (mixture of isomers) [Example 17, N-[1-[3-[[1-[2-[(3RS)-2,6-Dioxo-3-piperidyl]-1,3-dioxo-isoindolin-4-yl]-4-piperidyl]oxy]propyl]-4-piperidyl]-6-[[2-[(3R,4S)-3-fluoro-4-methoxy-1-piperidyl]pyrimidin-4-yl]amino]-1-isopropyl-pyrrolo[3,2-c]pyridine-3-carboxamide]: the DC50 came to 74 nM.

As to `CO[C@H]1CCN(c2nccc(Nc3cc4c(cn3)c(C(=O)NC3CCN(C(=O)N5CCN(CCCCNc6cccc7c6C(=O)N(C6CCC(=O)NC6=O)C7=O)CC5)CC3)cn4C3CCCC3)n2)C[C@H]1F` (mixture of isomers) [Example 13, 1-Cyclopentyl-N-[1-[4-[4-[[2-[(3RS)-2,6-dioxo-3-piperidyl]-1,3-dioxo-isoindolin-4-yl]amino]butyl]piperazine-1-carbonyl]-4-piperidyl]-6-[[2-[(3R,4S)-3-fluoro-4-methoxy-1-piperidyl]pyrimidin-4-yl]amino]pyrrolo[3,2-c]pyridine-3-carboxamide], the DC50 was 30 nM.

As for `CO[C@H]1CCN(c2nccc(Nc3cc4c(cn3)c(C(=O)NC3CCN(CCCCCCNc5cccc6c5C(=O)N(C5CCC(=O)NC5=O)C6=O)CC3)cn4C(C)C)n2)C[C@H]1F` (mixture of isomers) [Example 5, N-[1-[6-[[2-[(3RS)-2,6-Dioxo-3-piperidyl]-1,3-dioxo-isoindolin-4-yl]amino]hexyl]-4-piperidyl]-6-[[2-[(3R,4S)(3S,4R)-3-fluoro-4-methoxy-1-piperidyl]pyrimidin-4-yl]amino]-1-isopropyl-pyrrolo[3,2-c]pyridine-3-carboxamide], the DC50 is 28 nM.

Turning to `COC1CCN(c2nccc(Nc3cc4c(cn3)c(C(=O)NC3CCN(C(=O)CCCCCNc5cccc6c5C(=O)N(C5CCC(=O)NC5=O)C6=O)CC3)cn4C(C)C)n2)CC1` (racemic) [Example 1, N-[1-[6-[[2-[(3RS)-2,6-Dioxo-3-piperidyl]-1,3-dioxo-isoindolin-4-yl]amino]hexanoyl]-4-piperidyl]-1-isopropyl-6-[[2-(4-methoxy-1-piperidyl)pyrimidin-4-yl]amino]pyrrolo[3,2-c]pyridine-3-carboxamide], the DC50 was 59 nM.

As to `CO[C@H]1CCN(c2nccc(Nc3cc4c(cn3)c(C(=O)NC3CCN(CCCCCNc5cccc6c5C(=O)N(C5CCC(=O)NC5=O)C6=O)CC3)cn4C3CCCC3)n2)C[C@H]1F` (mixture of isomers) [Example 11, 1-Cyclopentyl-N-[1-[5-[[2-[(3RS)-2,6-dioxo-3-piperidyl]-1,3-dioxo-isoindolin-4-yl]amino]pentyl]-4-piperidyl]-6-[[2-[(3R,4S)-3-fluoro-4-methoxy-1-piperidyl]pyrimidin-4-yl]amino]pyrrolo[3,2-c]pyridine-3-carboxamide], the DC50 stood at 43 nM.
